One experiment deals with i-NOS (Homo sapiens, UniProt P35228). Description: Comparison of i-NOS inhibition with NIL amide and NIL dimethylamide. Type of experiment: biochemical.
Experiment [1] relates to nitrite production in human cartilage explants. Description: Human cartilage explant assay (nitrite production after IL-1β). Type of experiment: cell-based. To be noted: inhibition of nitrite production, IL-1β-stimulated explants. On the procedure:
Human cartilage Explant Assay
Bone pieces are rinsed twice with Dulbecco's Phosphate Buffered Saline (GibcoBRL) and once with Dulbecco's Modified Eagles Medium (GibcoBRL) and placed into a petri dish with phenol red free Minimum Essential Medium (MEM) (GibcoBRL). Cartilage was cut into small explants of approximately 15-45 mg in weight and one or two explants per well are placed into either 96 or 48 well culture plates with 200-500 μL of culture media per well. The culture media was either a custom modification of Minimum Essential Medium(Eagle) with Earle's salts (GibcoBRL) prepared without L-Arginine, without L-Glutamine and without phenol red or a custom modification of serumless Neuman and Tytell (GibcoBRL) medium prepared without L-arginine, without insulin, without ascorbic acid, without L-glutamine and without phenol red. Both are supplemented before use with 100 μM L-Arginine (Sigma), 2 mM L-glutamine, 1×HL-1 supplement (BioWhittaker), […] ascorbic acid (Sigma) and 150 pg/ml recombinant human IL-1[…] (RD Systems) to induce nitric oxide synthase. Compounds are then added in 10 μL aliquots and the explants incubated at 37° C. with 5% CO2 for 18-24 hours. The day old supernatant is then discarded and replaced with fresh culture media containing recombinant human IL-1β and compound and incubated for another 20-24 hours. […] All samples are done in quadruplicate. Unstimulated controls are cultured in media in the absence of recombinant human IL-1β. IC50 values (Table I) are determined from plotting the percent inhibition of nitrite production at six different concentrations of inhibitor.

The subject of the next experiment is airway inflammation. To be noted: murine model of allergic asthma; by down-regulation of chemokine expression; cited from earlier work.
Experiment [2] concerns LPS-induced increase in plasma nitrite/nitrate levels. Description: In vivo assay: endotoxin (LPS)-treated rats, plasma nitrite/nitrate. Details: species or system rat. The following applies: oral administration, plasma nitrite/nitrate 5 hours post-treatment. How it is done:
Plasma nitrite/nitrate levels can be determined 5 hours post-treatment.

[3] abbreviates: Rattus norvegicus, read-out: ED50.

pIC50: −log10 of the molar value. Where a name gives a salt, the structure may show the parent alone. Read-outs that look alike come from different tables or passages of the source.

i-NOS, sequence (P35228 whole entry): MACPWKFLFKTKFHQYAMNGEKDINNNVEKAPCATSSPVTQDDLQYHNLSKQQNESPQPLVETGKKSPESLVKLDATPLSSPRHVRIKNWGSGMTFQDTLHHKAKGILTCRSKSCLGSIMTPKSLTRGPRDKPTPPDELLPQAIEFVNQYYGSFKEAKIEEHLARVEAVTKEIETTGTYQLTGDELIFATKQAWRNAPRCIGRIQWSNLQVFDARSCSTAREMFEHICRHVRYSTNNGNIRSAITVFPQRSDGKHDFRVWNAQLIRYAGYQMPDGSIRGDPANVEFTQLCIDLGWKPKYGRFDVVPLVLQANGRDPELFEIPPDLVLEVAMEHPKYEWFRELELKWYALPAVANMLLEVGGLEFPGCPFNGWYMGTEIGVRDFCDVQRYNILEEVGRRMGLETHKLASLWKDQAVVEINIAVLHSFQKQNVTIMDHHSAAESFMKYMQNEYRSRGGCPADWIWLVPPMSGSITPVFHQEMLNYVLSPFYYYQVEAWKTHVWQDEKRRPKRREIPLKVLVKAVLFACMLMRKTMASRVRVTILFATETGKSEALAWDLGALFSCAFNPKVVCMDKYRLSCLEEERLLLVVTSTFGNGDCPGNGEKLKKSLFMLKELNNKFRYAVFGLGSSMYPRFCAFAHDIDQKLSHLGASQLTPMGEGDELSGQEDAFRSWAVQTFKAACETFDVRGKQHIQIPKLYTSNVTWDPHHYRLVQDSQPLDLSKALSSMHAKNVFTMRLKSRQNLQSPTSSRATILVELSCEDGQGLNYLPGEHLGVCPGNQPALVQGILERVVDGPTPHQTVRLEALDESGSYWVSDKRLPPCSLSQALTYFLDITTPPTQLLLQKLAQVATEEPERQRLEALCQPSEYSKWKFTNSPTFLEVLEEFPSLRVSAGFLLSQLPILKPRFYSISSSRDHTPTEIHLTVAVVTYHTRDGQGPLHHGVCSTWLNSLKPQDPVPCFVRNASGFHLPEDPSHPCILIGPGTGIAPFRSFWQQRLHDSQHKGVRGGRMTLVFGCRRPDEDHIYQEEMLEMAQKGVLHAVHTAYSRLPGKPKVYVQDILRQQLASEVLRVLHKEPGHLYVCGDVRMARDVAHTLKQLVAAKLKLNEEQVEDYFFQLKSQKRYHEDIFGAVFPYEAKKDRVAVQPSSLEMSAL

As for “2S-amino-6-[(1-iminoethyl)amino]-N-(1H-tetrazol-5-yl) hexanamide, hydrate, dihydrochloride [Example NN]”, the “selectivity compared with NIL amide or NIL dimethylamide” value at i-NOS is recorded as “more selective”. As for `CC(=N)NCC(F)=CCC[C@H](N)C(=O)O` (mixture of isomers) [Example B, (2S,5E/Z)-2-amino-6-fluoro-7-[(1-iminoethyl)amino]-5-heptenoic acid, Dihydrochloride], the pIC50 (commonly the IC50 on a negative log10 scale, so that one unit is a factor of ten) in experiment [1] (Homo sapiens) is 6.70. `CC1CCN=C(N)S1` (stereo not shown) [2-amino 5,6-dihydro 6-methyl 4H-1,3-thiazine]: in the experiment on airway inflammation, the “effect on airway inflammation” value is reported as “suppressed airway inflammation”. Compound `CC(=N)NC/C(F)=C\CC[C@H](N)C(=O)O` [Example A, (2S,5E)-2-amino-6-fluoro-7-[(1-iminoethyl)amino]-5-heptenoic acid, dihydrochloride, monohydrate] showed a pIC50 in experiment [1] (Homo sapiens) of 7.00. Besides, the ED50 (usually the midpoint of the dose-response relation) in experiment [2] (setting [3]) is below 0.1 mg/kg; in experiment [2] (dihydrochloride, monohydrate), below 0.1 mg/kg. In experiment [1] (Homo sapiens), `CC(=N)NC/C(F)=C/CC[C@H](N)C(=O)O` [Example D, (2S,5Z)-2-amino-6-fluoro-7-[(1-iminoethyl)amino]-5-heptenoic acid, trihydrochloride, dihydrate] gave a pIC50 of 5.60. Also, in experiment [2] (setting [3]), the ED50 was above 10 mg/kg. In the case of `CC(=N)NC/C(F)=C\CC[C@H](N)C(=O)Nc1nnn[nH]1` [Example H, (2S,5E)-2-amino-6-fluoro-7-[(1-iminoethyl)amino]-N-(1H-tetrazol-5-yl) 5-heptenamide, Dihydrochloride], the ED50 in experiment [2] (setting [3]) is below 0.3 mg/kg. As for `CC(=N)NC/C(F)=C\CC[C@](C)(N)C(=O)O` [Example HH, (2S,5E)-2-amino-2-methyl-6-fluoro-7-[(1-iminoethyl)amino]-5-heptenoic acid, Dihydrochloride], the pIC50 in experiment [1] (Homo sapiens) was 6.40. The ED50 in experiment [2] (setting [3]) is 0.4 mg/kg. `COC[C@](N)(CSCCNC(C)=N)C(=O)O` [Example J, 2-[[[2-[(1-Iminoethyl)amino]ethyl]thio]methyl]-O-methyl-D-serine, Dihydrochloride] gave a pIC50 in experiment [1] of 5.09. Compound `CC(=N)NC/C=C\CC[C@](C)(N)C(=O)O.Cl.Cl` [Example LL, (2S,5Z)-2-amino-2-methyl-7-[(1-iminoethyl)amino]-5-heptenoic acid, Dihydrochloride] had a negative logarithm of the IC50 (pIC50) in experiment [1] (Homo sapiens) of 6.10. Moreover, in experiment [2] (setting [3]), the ED50 stood at 0.3 mg/kg. The like results for `N=C1CCCC[C@H](CCCC[C@@H](N)C(=O)O)N1` [Example V, (α,2S)-.α-aminohexahydro-7-imino-1H-azepine-2-hexanoic acid, Trihydrate Hydrochloride] were, in that order, above 5.00 and below 3 mg/kg. Turning to `N=C1CCCC[C@@H](CCCC[C@H](N)C(=O)O)N1` [Example W, (αS,2R)-α-aminohexahydro-7-imino-1 H-azepine-2-hexanoic acid, Trihydrate Hydrochloride], the pIC50 in experiment [1] (Homo sapiens) was below 4.52. Besides, in experiment [2] (setting [3]), the ED50 is above 10 mg/kg.

Compound `N=C1CCCC[C@H](CCCC[C@H](N)C(=O)O)N1` [Example X, (αS,2S)-α-aminohexahydro-7-imino-1H-azepine-2-hexanoic acid, Trihydrate Hydrochloride] showed a pIC50 in experiment [1] above 5.00. With `Cl.N=C1CCCC[C@H](CCCC[C@@H](N)C(=O)O)N1.O.O.O` [Example Y, (αR,2S)-α-aminohexahydro-7-imino-1H-azepine-2-hexanoic acid, Trihydrate Hydrochloride], the ED50 in experiment [2] (setting [3]) is below 3 mg/kg. In experiment [1] (Homo sapiens), `N=C1CCCC[C@H](CCCC[C@H](N)C(=O)O)N1` [Example Z, (αS,2S)-α-aminohexahydro-7-imino-1H-azepine-2-hexanoic acid, Trihydrate Hydrochloride] gave a pIC50 above 5.00. Consider `CCSC(=N)N` [S-ethylisothiourea], for which the “effect on airway inflammation” value in the experiment with airway inflammation is recorded as “suppressed airway inflammation”.

The record behind these values is patent US20040077639A1, “Methods for the treatment of respiratory diseases and conditions using a selective iNOS inhibitor” (priority 2002, published 2004).
